# Like-named read-outs stand apart in the source and are kept apart here.
# Assays:
# [1] = tested on: patients hospitalized for acute HFrEF; assay: PIONEER-HF study: clinical outcomes; type: in vivo, human
# Procedure: The study rational and design is described in by Velazquez E J, et al. .in Am.
# The starting dose and all subsequent doses were selected to optimize the highest tolerated dose based on a systolic blood pressure (SBP) algorithm.
# Inclusion Criteria: • Patients ≥18 y of age with the capacity to provide written informed consent. • Currently hospitalized for a primary diagnosis of HF, including symptoms and signs of fluid overload. • Eligible patients will be randomized no earlier than 24 hours and up to ten days after presentation while still hospitalized as long as meet the following definition of stable status: • SBP≥100 mm Hg for the preceding 6 hours prior to randomization; no symptomatic hypotension • No increase (intensification) in i.v. diuretic dose within last 6 hours prior to randomization • No i.v. inotropic drugs for 24 hours prior to randomization • No i.v. vasodilators including nitrates within last 6 hours prior to randomization • Left ventricular EF 40% within the past 6 m (including current hospitalization) using echocardiography, multi gated acquisition scan (MUGA), CT scanning, MRI or ventricular angiography, provided no subsequent study documented an EF of >40% • Elevated NT-proBNP≥1600 pg/mL OR BNP≥400 pg/mL during current hospitalization.
# [2] = tested on: patients with HFrEF following hemodynamic stabilization after an episode of ADHF;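 also: adverse events recorded in patients during the 10-week treatment phase following randomization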
# [3] = 8 weeks, LCZ696 n = 440, enalapril n = 441
# [4] = compared with enalapril, 8-week study period
# [5] = not naive to ACEI/ARB (N = 665)
compound,measurement,setting,value
"CCCCC(=O)N(Cc1ccc(-c2ccccc2-c2nn[n-]n2)cc1)[C@H](C(=O)[O-])C(C)C.CCOC(=O)[C@H](C)C[C@@H](Cc1ccc(-c2ccccc2)cc1)NC(=O)CCC(=O)[O-].[Na+].[Na+].[Na+] [LCZ696, trisodium [3((1S,3R)-1-biphenyl-4-ylmethyl-3-ethoxycarbonyl-1-butylcarbamoyl) propionate-(S)-3′-methyl-2′-(pentanoyl{2″-(tetrazol-5-ylate)biphenyl-4′-ylmethyl}amino)butyrate]hemipentahydrate]",Additional HF drug,[1]; [3],75 (17.0) number (%)
same,"Composite (death, rehospitalization for HF, LVAD implantation, or listing for cardiac transplant)",[1]; [3],41 (9.3) number (%)
same,Death,[1]; [3],10 (2.3) number (%)
same,"Expanded composite (composite plus unplanned outpatient visits requiring IV diuretics, or increase >50% in diuretic dose)",[1]; [3],262 (59.5) number (%)
same,HF rehospitalization,[1]; [3],35 (8.0) number (%)
same,Increase in diuretic dose >50%,[1]; [3],242 (55.0) number (%)
same,LVAD implantation,[1]; [3],1 (0.2) number (%)
same,Listing for cardiac transplant,[1]; [3],0 (0.0) number (%)
same,Unplanned outpatient visits requiring intravenous diuretics,[1]; [3],2 (0.5) number (%)
same,"Additional HF drug, HR (95% CI)",[1]; LCZ696 vs. Enalapril,"0.89 (0.65, 1.22)"
same,"Death, HR (95% CI)",[1]; LCZ696 vs. Enalapril,"0.66 (0.30, 1.48)"
same,"Expanded composite, HR (95% CI)",[1]; LCZ696 vs. Enalapril,0.409
same,"HF rehospitalization, HR (95% CI)",[1]; LCZ696 vs. Enalapril,"0.56 (0.37, 0.84)"
same,"Increase in diuretic dose >50%, HR (95% CI)",[1]; LCZ696 vs. Enalapril,"0.84 (0.84, 1.21)"
same,"LVAD implantation, HR (95% CI)",[1]; LCZ696 vs. Enalapril,"0.99 (0.06, 15.97)"
same,"Unplanned outpatient visits requiring intravenous diuretics, HR (95% CI)",[1]; LCZ696 vs. Enalapril,"1.00 (0.14, 7.07)"
same,"Absolute risk reduction, clinical composite",[1]; [4],7.5%
same,"Relative risk reduction, clinical composite",[1]; [4],44.6%
same,Deaths attributed to the study treatment by the investigator,[2]; both arms,None
same,"SAE hyperkalemia, patients",[2]; both treatment groups,< 1%
same,"SAE hypotension, patients",[2]; both treatment groups,< 1%
same,AE of interest: Blood creatinine increased,[2]; de novo HFrEF (N = 286),3 (1.0) n (%)
same,AE of interest: Cardiac failure,[2]; de novo HFrEF (N = 286),13 (4.5) n (%)
same,AE of interest: Hyperkalemia,[2]; de novo HFrEF (N = 286),24 (8.4) n (%)
same,AE of interest: Hypotension,[2]; de novo HFrEF (N = 286),26 (9.1) n (%)
same,AE of interest: Renal failure,[2]; de novo HFrEF (N = 286),3 (1.0) n (%)
same,AE of interest: Renal impairment,[2]; de novo HFrEF (N = 286),8 (2.8) n (%)
same,At least one AE,[2]; de novo HFrEF (N = 286),178 (62.2) n (%)
same,At least one serious AE,[2]; de novo HFrEF (N = 286),33 (11.5) n (%)
same,Death,[2]; de novo HFrEF (N = 286),1 (0.3) n (%)
same,Treatment interruption due to AE,[2]; de novo HFrEF (N = 286),22 (7.7) n (%)
same,Rate of permanent discontinuation of study drug due to AEs,"[2]; initiated post-discharge (text, secondary endpoint)",3.5%
same,Rate of permanent discontinuation of study drug due to AEs,"[2]; initiated pre-discharge (text, secondary endpoint)",4.5%
same,AE of interest: Blood creatinine increased,[2]; naive to ACEI/ARB (N = 326),6 (1.8) n (%)
same,AE of interest: Cardiac failure,[2]; naive to ACEI/ARB (N = 326),17 (5.2) n (%)
same,AE of interest: Hyperkalemia,[2]; naive to ACEI/ARB (N = 326),20 (7.1) n (%)
same,AE of interest: Hypotension,[2]; naive to ACEI/ARB (N = 326),29 (8.9) n (%)
same,AE of interest: Renal failure,[2]; naive to ACEI/ARB (N = 326),6 (1.8) n (%)
same,AE of interest: Renal impairment,[2]; naive to ACEI/ARB (N = 326),8 (2.5) n (%)
same,At least one AE,[2]; naive to ACEI/ARB (N = 326),210 (64.4) n (%)
same,At least one serious AE,[2]; naive to ACEI/ARB (N = 326),47 (14.4) n (%)
same,Treatment interruption due to AE,[2]; naive to ACEI/ARB (N = 326),32 (9.8) n (%)
same,AE of interest: Blood creatinine increased,[2]; [5],23 (3.5) n (%)
same,AE of interest: Cardiac failure,[2]; [5],54 (8.1) n (%)
same,AE of interest: Hyperkalemia,[2]; [5],86 (12.9) n (%)
same,AE of interest: Hypotension,[2]; [5],79 (11.9) n (%)
same,AE of interest: Renal failure,[2]; [5],13 (2.0) n (%)
same,AE of interest: Renal impairment,[2]; [5],32 (4.8) n (%)
same,At least one AE,[2]; [5],446 (67.1) n (%)
same,At least one serious AE,[2]; [5],116 (17.4) n (%)
same,Treatment interruption due to AE,[2]; [5],77 (11.8) n (%)
same,"Mortality, patients who died",[2]; post-discharge arm,2.0%
same,"AE cardiac failure, patients",[2]; post-discharge group,8.5%
same,"AE dizziness, patients",[2]; post-discharge group,4.2%
same,"AE hyperkalemia, patients",[2]; post-discharge group,11.3%
same,"AE hypotension, patients",[2]; post-discharge group,9.1%
same,Patients with SAEs,[2]; post-discharge group,17.7%
same,"SAE acute kidney injury, patients",[2]; post-discharge group,1.4%
same,"SAE cardiac failure, patients",[2]; post-discharge group,7.7%
same,Permanent treatment discontinuation due to SAEs,"[2]; post-discharge, N = 496",13 (2.6) n (%)
same,Permanent treatment discontinuation due to non-SAEs,"[2]; post-discharge, N = 496",7 (1.4) n (%)
same,Serious adverse event: Acute kidney injury,"[2]; post-discharge, N = 496",7 (1.4) n (%)
same,Serious adverse event: Atrial fibrillation,"[2]; post-discharge, N = 496",4 (0.8) n (%)
same,Serious adverse event: Cardiac failure(acute/chronic),"[2]; post-discharge, N = 496",38 (7.7) n (%)
same,Serious adverse event: Chronic obstructive pulmonary disease,"[2]; post-discharge, N = 496",4 (0.8) n (%)
same,Serious adverse event: Hyperkalemia,"[2]; post-discharge, N = 496",2 (0.4) n (%)
same,Serious adverse event: Hypotension,"[2]; post-discharge, N = 496",2 (0.4) n (%)
same,Serious adverse event: Non-cardiac chest pain,"[2]; post-discharge, N = 496",3 (0.6) n (%)
same,Serious adverse event: Pneumonia,"[2]; post-discharge, N = 496",3 (0.6) n (%)

# — US20210177803A1, “NEW PHARMACEUTICAL USE FOR THE TREATMENT OF HEART FAILURE” (Novartis AG, priority 2018, published 2021)
